Measurements as given in ChEMBL document CHEMBL2439971, “Design, synthesis and antiproliferative evaluation of fluorenone analogs with DNA topoisomerase I inhibitory properties” (Bioorg Med Chem, 2013).
pIC50: −log10 of the molar value. Calls of active or inactive are those of the source. The calls are words filed in the database; no cut-off is given here.

Legend:
MCF7 = assay: Cytotoxicity against human MCF7 cells at 10 uM after 48 hrs by sulforhodamine B assay relative to control; format: functional
NCI-H460 = assay: Cytotoxicity against human NCI-H460 cells at 10 uM after 48 hrs by sulforhodamine B assay relative to control; format: functional
OVCAR-4 = assay: Cytotoxicity against human OVCAR4 cells at 10 uM after 48 hrs by sulforhodamine B assay relative to control; format: functional
A549 = assay: Cytotoxicity against human A549 cells at 10 uM after 48 hrs by sulforhodamine B assay relative to control; format: functional
CCRF-CEM = assay: Cytotoxicity against human CCRF-CEM cells at 10 uM after 48 hrs by sulforhodamine B assay relative to control; format: functional
SNB-75 = assay: Cytotoxicity against human SNB75 cells at 10 uM after 48 hrs by sulforhodamine B assay relative to control; format: functional
M14 = assay: Cytotoxicity against human M14 cells at 10 uM after 48 hrs by sulforhodamine B assay relative to control; format: functional
UACC-62 = assay: Cytotoxicity against human UACC62 cells at 10 uM after 48 hrs by sulforhodamine B assay relative to control; format: functional
SNB-19 = assay: Cytotoxicity against human SNB19 cells at 10 uM after 48 hrs by sulforhodamine B assay relative to control; format: functional
HT-29 = assay: Cytotoxicity against human HT-29 cells at 10 uM after 48 hrs by sulforhodamine B assay relative to control; format: functional
MDA-MB-468 = assay: Cytotoxicity against human MDA-MB-468 cells at 10 uM after 48 hrs by sulforhodamine B assay relative to control; format: functional
HCT-15 = assay: Cytotoxicity against human HCT15 cells at 10 uM after 48 hrs by sulforhodamine B assay relative to control; format: functional
DU-145 = assay: Cytotoxicity against human DU145 cells at 10 uM after 48 hrs by sulforhodamine B assay relative to control; format: functional
SF-295 = assay: Cytotoxicity against human SF295 cells at 10 uM after 48 hrs by sulforhodamine B assay relative to control; format: functional
T47D = assay: Cytotoxicity against human T47D cells at 10 uM after 48 hrs by sulforhodamine B assay relative to control; format: functional
[1] = Cytotoxicity against human Hs 578T cells at 10 uM after 48 hrs by sulforhodamine B assay relative to control; format: functional
SK-MEL-5 = assay: Cytotoxicity against human SK-MEL-5 cells at 10 uM after 48 hrs by sulforhodamine B assay relative to control; format: functional
OVCAR-8 = assay: Cytotoxicity against human OVCAR8 cells at 10 uM after 48 hrs by sulforhodamine B assay relative to control; format: functional
SW-620 = assay: Cytotoxicity against human SW620 cells at 10 uM after 48 hrs by sulforhodamine B assay relative to control; format: functional
COLO 205 = assay: Cytotoxicity against human COLO205 cells at 10 uM after 48 hrs by sulforhodamine B assay relative to control; format: functional
MOLT-4 = assay: Cytotoxicity against human MOLT4 cells at 10 uM after 48 hrs by sulforhodamine B assay relative to control; format: functional
HOP-62 = assay: Cytotoxicity against human HOP62 cells at 10 uM after 48 hrs by sulforhodamine B assay relative to control; format: functional
NCI-H23 = assay: Cytotoxicity against human NCI-H23 cells at 10 uM after 48 hrs by sulforhodamine B assay relative to control; format: functional
Homo sapiens = species: Homo sapiens; assay: Inhibition of telomerase (unknown origin) at 10 uM TRAP assay
LOX IMVI = assay: Cytotoxicity against human LOXIMVI cells at 10 uM after 48 hrs by sulforhodamine B assay relative to control; format: functional
SN12C = assay: Cytotoxicity against human SN12C cells at 10 uM after 48 hrs by sulforhodamine B assay relative to control; format: functional
MDA-MB-435 = assay: Cytotoxicity against human MDA-MB-435 cells at 10 uM after 48 hrs by sulforhodamine B assay relative to control; format: functional
NCI-H522 = assay: Cytotoxicity against human NCI-H522 cells at 10 uM after 48 hrs by sulforhodamine B assay relative to control; format: functional
UO-31 = assay: Cytotoxicity against human UO31 cells at 10 uM after 48 hrs by sulforhodamine B assay relative to control; format: functional
K562 = assay: Cytotoxicity against human K562 cells at 10 uM after 48 hrs by sulforhodamine B assay relative to control; format: functional
SK-MEL-2 = assay: Cytotoxicity against human SK-MEL-2 cells at 10 uM after 48 hrs by sulforhodamine B assay relative to control; format: functional
PC-3 [2] = assay: Cytotoxicity against human PC3 cells at 10 uM after 48 hrs by sulforhodamine B assay relative to control; format: functional
RXF 393 = assay: Cytotoxicity against human RXF393 cells at 10 uM after 48 hrs by sulforhodamine B assay relative to control; format: functional
[3] = Cytotoxicity against human EKVX cells at 10 uM after 48 hrs by sulforhodamine B assay relative to control; format: functional
HL-60(TB) = assay: Cytotoxicity against human HL-60(TB) cells at 10 uM after 48 hrs by sulforhodamine B assay relative to control; format: functional
U-251 = assay: Cytotoxicity against human U251 cells at 10 uM after 48 hrs by sulforhodamine B assay relative to control; format: functional
BT-549 = assay: Cytotoxicity against human BT549 cells at 10 uM after 48 hrs by sulforhodamine B assay relative to control; format: functional
KM12 = assay: Cytotoxicity against human KM12 cells at 10 uM after 48 hrs by sulforhodamine B assay relative to control; format: functional
IGROV-1 = assay: Cytotoxicity against human IGROV1 cells at 10 uM after 48 hrs by sulforhodamine B assay relative to control; format: functional
HCC 2998 = assay: Cytotoxicity against human HCC2998 cells at 10 uM after 48 hrs by sulforhodamine B assay relative to control; format: functional
Malme-3M = assay: Cytotoxicity against human MALME-3M cells at 10 uM after 48 hrs by sulforhodamine B assay relative to control; format: functional
NCI/ADR-RES = assay: Cytotoxicity against human NCI/ADR-RES cells at 10 uM after 48 hrs by sulforhodamine B assay relative to control; format: functional
ACHN = assay: Cytotoxicity against human ACHN cells at 10 uM after 48 hrs by sulforhodamine B assay relative to control; format: functional
TK-10 = assay: Cytotoxicity against human TK10 cells at 10 uM after 48 hrs by sulforhodamine B assay relative to control; format: functional
SF-539 = assay: Cytotoxicity against human SF539 cells at 10 uM after 48 hrs by sulforhodamine B assay relative to control; format: functional
RPMI-8226 = assay: Cytotoxicity against human RPMI8226 cells at 10 uM after 48 hrs by sulforhodamine B assay relative to control; format: functional
UACC-257 = assay: Cytotoxicity against human UACC257 cells at 10 uM after 48 hrs by sulforhodamine B assay relative to control; format: functional
CAKI-1 = assay: Cytotoxicity against human CAKI-1 cells at 10 uM after 48 hrs by sulforhodamine B assay relative to control; format: functional
SK-MEL-28 = assay: Cytotoxicity against human SK-MEL-28 cells at 10 uM after 48 hrs by sulforhodamine B assay relative to control; format: functional
SF-268 = assay: Cytotoxicity against human SF268 cells at 10 uM after 48 hrs by sulforhodamine B assay relative to control; format: functional
HCT-116 = assay: Cytotoxicity against human HCT116 cells at 10 uM after 48 hrs by sulforhodamine B assay relative to control; format: functional
SR = assay: Cytotoxicity against human SR cells at 10 uM after 48 hrs by sulforhodamine B assay relative to control; format: functional
NCI-H226 = assay: Cytotoxicity against human NCI-H226 cells at 10 uM after 48 hrs by sulforhodamine B assay relative to control; format: functional
NCI-H322M = assay: Cytotoxicity against human NCI-H322M cells at 10 uM after 48 hrs by sulforhodamine B assay relative to control; format: functional
PC-3 [4] = assay: Cytotoxicity against human PC3 cells after 48 hrs by sulforhodamine B assay; format: functional, cell-based; conditions: PC-3, 48 h
786-0 = assay: Cytotoxicity against human 786-0 cells at 10 uM after 48 hrs by sulforhodamine B assay relative to control; format: functional
OVCAR-3 = assay: Cytotoxicity against human OVCAR3 cells at 10 uM after 48 hrs by sulforhodamine B assay relative to control; format: functional
MDA-MB-231 = assay: Cytotoxicity against human MDA-MB-231 cells at 10 uM after 48 hrs by sulforhodamine B assay relative to control; format: functional
OVCAR-5 = assay: Cytotoxicity against human OVCAR5 cells at 10 uM after 48 hrs by sulforhodamine B assay relative to control; format: functional

O=C(CCN1CCOCC1)Nc1ccc2c(c1)C(=O)c1cc(NC(=O)CCN3CCOCC3)ccc1-2
Activity (MCF7): 88.76%
Activity (NCI-H460): 105.97%
Activity (OVCAR-4): 105.22%
Activity (A549): 98.13%
Activity (CCRF-CEM): 92.01%
Activity (SNB-75): 82.97%
Activity (M14): 127.51%
Activity (UACC-62): 122.9%
Activity (SNB-19): 110.22%
Activity (HT-29): 111.58%
Activity (MDA-MB-468): 101.73%
Activity (HCT-15): 108.42%
Activity (DU-145): 117.55%
Activity (SF-295): 105.19%
Activity (T47D): 101.34%
Activity [1]: 101.67%
Activity (SK-MEL-5): 102.76%
Activity (OVCAR-8): 103.76%
Activity (SW-620): 106.16%
Activity (COLO 205): 105.48%
Activity (MOLT-4): 94.98%
Activity (HOP-62): 115.73%
Activity (NCI-H23): 94.62%
inhibition (Homo sapiens): inactive
Activity (LOX IMVI): 89.4%
Activity (SN12C): 104.8%
Activity (MDA-MB-435): 104.2%
Activity (NCI-H522): 102.66%
Activity (UO-31): 86.58%
Activity (K562): 99.03%
Activity (SK-MEL-2): 131.96%
Activity (PC-3 [2]): 113.85%
Activity (RXF 393): 99.09%
Activity [3]: 99.88%
Activity (HL-60(TB)): 112.24%
Activity (U-251): 94.41%
Activity (BT-549): 113.53%
Activity (KM12): 105.8%
Activity (IGROV-1): 95.95%
Activity (HCC 2998): 100.06%
Activity (Malme-3M): 118.44%
Activity (NCI/ADR-RES): 102.84%
Activity (ACHN): 101.15%
Activity (TK-10): 112.26%
Activity (SF-539): 107.54%
Activity (RPMI-8226): 99.87%
Activity (UACC-257): 113.13%
Activity (CAKI-1): 96.99%
Activity (SK-MEL-28): 104.41%
Activity (SF-268): 115.57%
Activity (HCT-116): 114.57%
Activity (SR): 98.5%
Activity (NCI-H226): 109.63%
Activity (NCI-H322M): 109.97%
pIC50 (PC-3 [4]): < 4.52
Activity (786-0): 110.24%
Activity (OVCAR-3): 121.23%
Activity (MDA-MB-231): 122.26%
Activity (OVCAR-5): 103.99%

CCCSCC(=O)Nc1ccc2c(c1)C(=O)c1cc(NC(=O)CSCCC)ccc1-2
Activity (MCF7): 92.24%
Activity (NCI-H460): 110.9%
Activity (OVCAR-4): 106.85%
Activity (A549): 99.19%
Activity (CCRF-CEM): 90.86%
Activity (SNB-75): 88.25%
Activity (M14): 99.86%
Activity (UACC-62): 107.45%
Activity (SNB-19): 102.55%
Activity (HT-29): 93.31%
Activity (MDA-MB-468): 98.19%
Activity (HCT-15): 86.05%
Activity (DU-145): 111.27%
Activity (SF-295): 69.6%
Activity (T47D): 94.56%
Activity [1]: 92.42%
Activity (SK-MEL-5): 91.99%
Activity (OVCAR-8): 122.23%
Activity (SW-620): 117.49%
Activity (COLO 205): 111.93%
Activity (MOLT-4): 82.96%
Activity (HOP-62): 106.36%
Activity (NCI-H23): 98.99%
inhibition (Homo sapiens): inactive
Activity (LOX IMVI): 90.88%
Activity (SN12C): 102.58%
Activity (MDA-MB-435): 102.08%
Activity (NCI-H522): 80.15%
Activity (UO-31): 104.91%
Activity (K562): 84.45%
Activity (SK-MEL-2): 106.67%
Activity (PC-3 [2]): 94.41%
Activity (RXF 393): 73.43%
Activity [3]: 100.02%
Activity (HL-60(TB)): 99.03%
Activity (U-251): 82.28%
Activity (BT-549): 79.13%
Activity (KM12): 90.34%
Activity (IGROV-1): 103.61%
Activity (HCC 2998): 101.22%
Activity (Malme-3M): 107%
Activity (NCI/ADR-RES): 100.59%
Activity (ACHN): 110.7%
Activity (TK-10): 109.43%
Activity (SF-539): 77.18%
Activity (RPMI-8226): 45.12%
Activity (UACC-257): 137.38%
Activity (CAKI-1): 116.5%
Activity (SK-MEL-28): 90.58%
Activity (SF-268): 121.78%
Activity (HCT-116): 97.47%
Activity (SR): 76.63%
Activity (NCI-H226): 110.7%
Activity (NCI-H322M): 84.33%
pIC50 (PC-3 [4]): < 4.52
Activity (786-0): 88.03%
Activity (OVCAR-3): 108.65%
Activity (MDA-MB-231): 110.09%
Activity (OVCAR-5): 106.86%
